According to ChEMBL document CHEMBL5726408, “Compounds for treatment of complement mediated disorders” (2017):

Biological target: Complement factor D (Homo sapiens, UniProt P00746)
Experiment: Inhibition Assay: Human factor D (purified from human serum, Complement Technology, Inc.) at 80 nM final concentration is incubated with test compound at various concentrations for 5 minutes at room temperature in 50 mM Tris, 1M NaCl, pH 7.5. A synthetic substrate Z-L-Lys-SBzl and DTNB (Ellman's reagent) are added to final concentrations of 10 μM each. The increase in color is recorded at OD405 nm in a microplate in kinetic mode over 30 minutes with 30 second time points in a […]. IC50 values are calculated by non-linear regression from the percentage of inhibition of complement factor D activity as a function of test compound concentration.

Complement factor D, sequence (P00746 whole entry): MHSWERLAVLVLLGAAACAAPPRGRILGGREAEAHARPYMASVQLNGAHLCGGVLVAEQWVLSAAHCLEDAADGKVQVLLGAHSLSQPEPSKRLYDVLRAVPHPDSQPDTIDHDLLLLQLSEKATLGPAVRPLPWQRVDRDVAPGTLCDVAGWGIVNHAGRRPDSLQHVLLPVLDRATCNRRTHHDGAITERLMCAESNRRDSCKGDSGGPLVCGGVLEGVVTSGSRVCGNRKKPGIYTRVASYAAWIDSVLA

IC50 [µM] | Structure (SMILES)
< 1 | NC(=O)c1cn(CC(=O)N2C[C@H](F)C[C@H]2C(=O)Nc2cccc(-c3ccccc3Cl)c2F)c2ccsc12
< 1 | NC(=O)c1nn(CC(=O)N2C[C@H](F)C[C@H]2C(=O)Nc2cccc(Br)n2)c2c1C=CC1N=C(c3cccc(Cl)c3)N=C21 (some centres not stated)
